Like-named read-outs stand apart in the source and are kept apart here.
Columns and labels:
[1] = target: T1, TbPTR1 (Trypanosoma brucei brucei, UniProt O76290); assay: biochemical; settings: for inhibition at 50 µM: read-out: % Inhibition TbPTR1 at 50 μM
T1 construct: made in house
T1 sequence (O76290 1-268): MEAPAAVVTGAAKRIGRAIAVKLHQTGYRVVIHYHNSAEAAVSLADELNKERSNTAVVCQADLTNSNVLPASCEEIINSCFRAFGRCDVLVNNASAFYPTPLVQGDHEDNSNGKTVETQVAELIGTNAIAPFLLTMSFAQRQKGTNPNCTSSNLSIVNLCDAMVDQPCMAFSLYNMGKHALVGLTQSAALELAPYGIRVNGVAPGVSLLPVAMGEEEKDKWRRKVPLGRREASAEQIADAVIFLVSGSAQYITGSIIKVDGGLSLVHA

[2] = system: T. b. brucei Lister 427 bloodstream forms; assay: In vitro activity against T. brucei (HTS SYBR Green I growth inhibition assay); assay type: cell-based, Trypanosoma brucei brucei; settings: standard deviation within ±10% of the value; for inhibition at 50 µM / EC50: Trypanosoma brucei; for inhibition at 50 µM: read-out: % Inhibition T. brucei at 50 μM; for EC50: read-out: EC50 T. brucei
[3] = target: T2, hERG (Homo sapiens, UniProt Q12809); design: hERG inhibition liability assay
T2 construct: gene KCNH2
T2 sequence (Q12809 whole entry): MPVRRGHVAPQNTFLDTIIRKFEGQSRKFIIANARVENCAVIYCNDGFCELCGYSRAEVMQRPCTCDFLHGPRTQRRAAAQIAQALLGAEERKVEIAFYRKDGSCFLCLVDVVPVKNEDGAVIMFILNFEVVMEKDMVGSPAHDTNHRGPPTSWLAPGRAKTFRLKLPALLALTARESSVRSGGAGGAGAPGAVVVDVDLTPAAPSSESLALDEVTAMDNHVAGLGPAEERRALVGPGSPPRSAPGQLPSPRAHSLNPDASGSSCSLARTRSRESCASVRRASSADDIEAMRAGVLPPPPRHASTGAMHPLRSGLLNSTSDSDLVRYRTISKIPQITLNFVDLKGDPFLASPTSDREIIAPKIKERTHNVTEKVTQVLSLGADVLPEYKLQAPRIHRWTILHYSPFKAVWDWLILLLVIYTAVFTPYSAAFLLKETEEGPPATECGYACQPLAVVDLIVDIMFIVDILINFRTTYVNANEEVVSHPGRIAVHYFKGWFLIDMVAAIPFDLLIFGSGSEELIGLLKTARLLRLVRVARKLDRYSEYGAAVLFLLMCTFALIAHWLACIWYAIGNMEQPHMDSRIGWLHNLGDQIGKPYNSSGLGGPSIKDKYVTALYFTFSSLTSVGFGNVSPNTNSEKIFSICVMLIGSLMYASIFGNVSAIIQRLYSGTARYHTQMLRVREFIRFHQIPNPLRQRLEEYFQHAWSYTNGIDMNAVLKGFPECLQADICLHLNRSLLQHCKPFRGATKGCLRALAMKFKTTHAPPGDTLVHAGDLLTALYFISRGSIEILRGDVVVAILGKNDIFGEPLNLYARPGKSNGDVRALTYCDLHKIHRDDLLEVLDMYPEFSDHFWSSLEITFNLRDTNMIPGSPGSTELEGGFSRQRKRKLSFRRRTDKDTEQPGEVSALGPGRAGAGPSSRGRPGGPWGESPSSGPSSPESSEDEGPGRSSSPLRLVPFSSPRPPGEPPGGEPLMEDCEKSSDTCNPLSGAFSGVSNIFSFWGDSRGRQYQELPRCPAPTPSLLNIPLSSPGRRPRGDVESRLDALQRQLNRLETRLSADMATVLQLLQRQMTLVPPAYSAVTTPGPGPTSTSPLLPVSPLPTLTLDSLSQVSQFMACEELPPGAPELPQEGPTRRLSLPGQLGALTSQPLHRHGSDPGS

[4] = target: T3, CYP1A2 (Homo sapiens, UniProt P05177); assay: in vitro; design: cytochrome P450 isoform inhibition liability assay
T3 sequence (P05177 1-516): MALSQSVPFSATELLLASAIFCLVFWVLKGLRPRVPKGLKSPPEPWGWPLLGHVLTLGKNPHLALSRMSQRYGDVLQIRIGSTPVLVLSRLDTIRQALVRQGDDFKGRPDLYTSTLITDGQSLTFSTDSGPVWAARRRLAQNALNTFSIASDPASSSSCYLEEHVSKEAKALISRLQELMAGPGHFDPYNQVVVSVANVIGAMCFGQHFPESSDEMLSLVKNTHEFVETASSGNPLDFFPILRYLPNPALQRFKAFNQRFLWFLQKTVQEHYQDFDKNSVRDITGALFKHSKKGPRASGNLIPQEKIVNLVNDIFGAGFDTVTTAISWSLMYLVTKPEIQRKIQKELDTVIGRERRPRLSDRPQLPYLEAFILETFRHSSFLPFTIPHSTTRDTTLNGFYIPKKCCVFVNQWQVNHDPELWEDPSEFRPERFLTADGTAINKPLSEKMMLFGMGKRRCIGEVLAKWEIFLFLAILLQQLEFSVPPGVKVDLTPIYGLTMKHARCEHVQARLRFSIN

[5] = target: CYP2C19 (Homo sapiens, UniProt P33261); assay: in vitro; design: cytochrome P450 isoform inhibition liability assay
Chain of CYP2C19 (P33261 whole entry, canonical isoform): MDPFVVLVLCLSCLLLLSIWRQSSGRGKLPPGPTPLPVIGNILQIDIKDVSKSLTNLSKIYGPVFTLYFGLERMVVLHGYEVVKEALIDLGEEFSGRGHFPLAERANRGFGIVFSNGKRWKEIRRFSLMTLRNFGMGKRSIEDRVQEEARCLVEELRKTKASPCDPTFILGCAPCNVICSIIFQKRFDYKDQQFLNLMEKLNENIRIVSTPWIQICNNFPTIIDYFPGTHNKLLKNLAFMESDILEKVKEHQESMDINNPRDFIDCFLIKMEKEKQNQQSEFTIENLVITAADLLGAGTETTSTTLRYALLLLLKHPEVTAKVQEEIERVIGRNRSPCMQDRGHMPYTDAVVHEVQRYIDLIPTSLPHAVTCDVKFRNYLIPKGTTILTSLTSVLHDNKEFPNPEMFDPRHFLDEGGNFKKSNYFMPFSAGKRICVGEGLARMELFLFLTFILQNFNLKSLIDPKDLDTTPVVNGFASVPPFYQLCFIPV

[6] = target: CYP2C9 (Homo sapiens, UniProt P11712); assay: in vitro; design: cytochrome P450 isoform inhibition liability assay
Chain of CYP2C9 (P11712 whole entry, canonical isoform): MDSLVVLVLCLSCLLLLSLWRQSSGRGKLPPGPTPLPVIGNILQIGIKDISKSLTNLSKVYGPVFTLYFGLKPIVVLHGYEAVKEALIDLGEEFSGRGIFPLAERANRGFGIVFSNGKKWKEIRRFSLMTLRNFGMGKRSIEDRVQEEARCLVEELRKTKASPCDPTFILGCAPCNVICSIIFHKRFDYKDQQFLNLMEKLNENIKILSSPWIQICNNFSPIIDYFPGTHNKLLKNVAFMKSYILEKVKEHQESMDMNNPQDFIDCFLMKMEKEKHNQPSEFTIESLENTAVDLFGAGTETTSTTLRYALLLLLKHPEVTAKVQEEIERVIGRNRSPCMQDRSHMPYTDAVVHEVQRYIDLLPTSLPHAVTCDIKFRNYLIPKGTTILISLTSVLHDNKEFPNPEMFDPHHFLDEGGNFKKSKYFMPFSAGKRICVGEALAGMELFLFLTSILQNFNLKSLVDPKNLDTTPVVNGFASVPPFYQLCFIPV

[7] = target: CYP2D6 (Homo sapiens, UniProt P10635); assay: in vitro; design: cytochrome P450 isoform inhibition liability assay
Chain of CYP2D6 (P10635 whole entry, canonical isoform): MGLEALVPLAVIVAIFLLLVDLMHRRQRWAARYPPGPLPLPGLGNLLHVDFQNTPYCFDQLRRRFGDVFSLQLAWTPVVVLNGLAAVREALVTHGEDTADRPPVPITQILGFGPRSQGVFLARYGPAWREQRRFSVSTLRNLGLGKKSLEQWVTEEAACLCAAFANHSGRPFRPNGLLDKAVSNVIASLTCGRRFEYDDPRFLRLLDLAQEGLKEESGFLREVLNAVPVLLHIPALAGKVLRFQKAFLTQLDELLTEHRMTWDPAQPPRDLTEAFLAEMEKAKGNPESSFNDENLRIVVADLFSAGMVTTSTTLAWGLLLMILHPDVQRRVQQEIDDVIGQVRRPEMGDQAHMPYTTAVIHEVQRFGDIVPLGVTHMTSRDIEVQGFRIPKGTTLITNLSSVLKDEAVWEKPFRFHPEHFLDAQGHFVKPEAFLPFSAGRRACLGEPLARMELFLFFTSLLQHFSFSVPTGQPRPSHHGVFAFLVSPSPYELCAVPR

[8] = target: CYP3A4 (Homo sapiens, UniProt P08684); assay: in vitro; design: cytochrome P450 isoform inhibition liability assay
Chain of CYP3A4 (P08684 whole entry, canonical isoform): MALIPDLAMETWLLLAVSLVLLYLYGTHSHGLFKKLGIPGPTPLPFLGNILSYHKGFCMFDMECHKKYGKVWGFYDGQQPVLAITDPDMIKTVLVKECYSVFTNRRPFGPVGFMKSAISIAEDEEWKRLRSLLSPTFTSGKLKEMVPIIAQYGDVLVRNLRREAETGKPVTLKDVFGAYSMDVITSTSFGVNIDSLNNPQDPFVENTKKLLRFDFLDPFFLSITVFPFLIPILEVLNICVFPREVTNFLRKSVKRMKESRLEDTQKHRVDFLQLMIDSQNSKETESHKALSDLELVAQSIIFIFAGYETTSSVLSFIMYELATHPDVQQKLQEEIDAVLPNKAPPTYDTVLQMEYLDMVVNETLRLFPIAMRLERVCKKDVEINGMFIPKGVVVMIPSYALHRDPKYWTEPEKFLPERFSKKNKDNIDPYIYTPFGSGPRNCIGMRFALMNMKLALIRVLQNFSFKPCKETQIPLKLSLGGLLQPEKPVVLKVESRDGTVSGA

[9] = target: T4, hDHFR (Homo sapiens, UniProt P00374); assay: biochemical; design: human DHFR enzyme inhibition
T4 construct: gene DHFR
T4 sequence (P00374 1-187): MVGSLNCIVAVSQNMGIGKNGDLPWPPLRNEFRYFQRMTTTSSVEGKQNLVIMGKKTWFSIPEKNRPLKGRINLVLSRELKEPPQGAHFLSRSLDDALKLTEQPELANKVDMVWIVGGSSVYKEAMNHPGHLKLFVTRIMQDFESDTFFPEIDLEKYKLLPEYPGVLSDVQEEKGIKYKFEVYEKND
Description: Figure 10 Summary heat map of the in vitro assays to determine possible liability issues for all synthesized compounds. Assays were performed to assess inhibition of hERG and five CYP isoforms (1A2, 2C9, 2C19, 2D6, and 3A4), growth inhibition of A549 and W1-38 cell lines, and mitochondrial toxicity at 10 μM. The hDHFR inhibition was determined at 100 μM. The data, expressed as percentage values, were organized by adopting a color code for rapid and intuitive visualization. The ideal compound should have all tiles blue, indicating a safe toxicological profile for progressing into the development pipeline. The cells are colored from blue (100% of cell growth at the tested concentration) to red (0% of cell growth at the tested concentration) for A549 and W1-38 and from blue (0% of inhibitory activity at the tested concentration) to red (100% of inhibitory activity at the tested concentration) for CYP isoforms, hERG, hDHFR, and mitochondrial toxicity.

[10] = system: 786-O; assay: cells; design: mitochondrial toxicity in 786-O renal carcinoma cells; settings: Homo sapiens, 786-0; mitochondrial toxicity
[11] = in vitro; design: cytotoxicity, per cent cell growth of A549 cells; settings: human, a549 cells; read-out: % cell growth A549 at 10uM
[12] = in vitro; design: cytotoxicity, per cent cell growth of WI-38 fibroblasts; settings: human, wi-38 cells; read-out: % cell growth W1-38 at 10uM

SMILES	inhibition at 50 µM ([1]; 50 μM compound)	inhibition at 50 µM ([2]; 50 μM)	inhibition at 10 µM [3]	inhibition at 10 µM [4]	inhibition at 10 µM [5]	inhibition at 10 µM [6]	inhibition at 10 µM [7]	inhibition at 10 µM [8]	inhibition at 100 µM [9]	inhibition at 10 µM [10]	viability at 10 µM [11]	viability at 10 µM [12]	EC50 [2]	% Inhibition TbPTR1 at 50 μM ([1]; 50 μM compound)	IC50 ([1]; dose-response 0.001-100 μM)	% Inhibition T. brucei at 50 μM ([2]; 50 μM)	inhibition at 10 µM [9]
COc1ccc(-c2nnc(N)s2)cc1OC [1c]	9.4 ± 0.3%	64.3%	13.6 ± 4%	14.1 ± 3.4%	-26.1 ± 22.5%	-25.9 ± 1.5%	-45.9 ± 3.1%	-7.1 ± 6%	42%	-7.3 ± 5.2%	105 ± 5.3%	110 ± 33.5%	–	–	–	–	–
Nc1nnc(-c2ccc(O)c(O)c2)s1 [1d, 3′,4′-dihydroxy-phenyl-1,3,4-thiadiazole]	16.7 ± 1%	78.6%	19.2 ± 6.4%	-16.8 ± 6.9%	-32.3 ± 7.8%	-19.5 ± 5.6%	-28.4 ± 10.1%	-8.1 ± 3.2%	62%	-0.1 ± 6.2%	145.9 ± 0.7%	99.9 ± 17.5%	18.3 µM	–	–	–	–
Nc1nnc(-c2cc(O)c(O)c(O)c2)s1 [1f, 3′,4′,5′-trihydroxy-phenyl-1,3,4-thiadiazole]	44.9 ± 0.9%	–	3.3 ± 2.2%	71.4 ± 6.9%	67.4 ± 7.3%	38.2 ± 5.4%	-6 ± 7.3%	67.7 ± 3.1%	31%	-9.6 ± 7.9%	118 ± 3.1%	111 ± 12.9%	1 µM	did not show inhibition	41 µM	100.0%	–
COc1cccc(OC)c1-c1nnc(N)s1 [1g]	14.1 ± 1.2%	4.2%	4.3 ± 2%	8.9 ± 0.3%	-30.6 ± 12.9%	-5.6 ± 1.3%	-30.5 ± 5.6%	13 ± 6.4%	12%	-3.9 ± 2%	149.9 ± 0.3%	80.3 ± 6.8%	–	–	–	–	–
COc1ccccc1-c1nnc(N)s1 [1h]	24.1 ± 1%	< 0%	5.2 ± 6.6%	21.5 ± 4.6%	-20.9 ± 16.1%	-32.3 ± 3.6%	-31.5 ± 9.5%	-9.4 ± 8%	14%	-7.8 ± 2.6%	126 ± 17.3%	129 ± 10.3%	–	–	–	–	–
Nc1nnc(-c2cccc(Br)c2)s1 [1i]	34.2 ± 1.5%	1.8%	14.6 ± 4.2%	47 ± 2%	-30.9 ± 4.3%	-47.7 ± 2%	-45.1 ± 6.2%	-14.1 ± 6%	19%	-3.6 ± 9.1%	135 ± 4.6%	111 ± 12.3%	–	–	–	–	–
Nc1nnc(-c2ccc(Cl)c(Cl)c2)s1 [1l]	15.6 ± 0.7%	30%	91.7 ± 8.4%	80.6 ± 1.6%	64.9 ± 1.7%	46.7 ± 1.5%	52.7 ± 2.1%	35.7 ± 7.9%	–	7.6 ± 8.3%	107 ± 1.2%	77.8 ± 22.1%	–	–	–	–	18%
Nc1nnc(-c2ccc(-c3nnc(N)s3)c(N)c2)s1 [1o]	23.4 ± 0.1%	1.6%	-1.9 ± 4.9%	9.5 ± 4.2%	-28.3 ± 16%	-4.2 ± 4.2%	-38 ± 5.7%	-0.7 ± 4.4%	–	-6.1 ± 4.3%	118 ± 9.4%	103 ± 1.8%	–	–	–	–	12%
Nc1nnc(-c2ccc(OCc3ccc(Cl)c(Cl)c3)cc2)s1 [1r]	< 0%	58.4%	40.7 ± 7.5%	24.7 ± 1.4%	69.6 ± 5.2%	31.3 ± 0.4%	48 ± 0.9%	14.9 ± 5.7%	17%	4.7 ± 7.8%	104 ± 6.6%	68.7 ± 17.9%	–	–	–	–	–
COc1ccc(-c2ccc(-c3nnc(N)s3)nc2)cc1 [1t]	8.3 ± 1.8%	28.9%	59.5 ± 42.9%	76.4 ± 1.2%	17 ± 5.7%	19.7 ± 8.9%	8.9 ± 2.4%	8.5 ± 3.3%	–	6.7 ± 17.3%	60.7 ± 5.9%	107 ± 10.4%	–	–	–	–	8%

— publication PMC5623949, “Exploiting the 2-Amino-1,3,4-thiadiazole Scaffold To Inhibit Trypanosoma brucei Pteridine Reductase in Support of Early-Stage Drug Discovery” (ACS Omega, 2017)
